The test addresses T1, human PDE10A full length (Homo sapiens, UniProt Q9Y233).
T1 construct: purchased Enzo Life Science, Lausen, Switzerland SE-534
The experiment in a line: human PDE10A full length Scintillation Proximity Assay (SPA). The format is biochemical. The following applies: 50 nM cGMP + 50 nM [3H]-cGMP, 20 min at room temperature, read-out: PDE10A inhibition IC50. As to the method: The following test was carried out in order to determine the activity of the compounds of the present invention. PDE10A activity of the compounds of the present invention was determined using a Scintillation Proximity Assay (SPA)-based method similar to the one previously described (Fawcett, L. et al., Proc. Natl. Acad. Sci. USA 2000, 97(7), 3702-3707).
The human PDE10A full length assay was performed in 96-well micro titer plates. The reaction mixture of 50 μl contained 20 mM HEPES pH=7.5/10 mM MgCl2/0.05 mg/ml BSA (Sigma cat. # A-7906), 50 nM cGMP (Sigma, cat. # G6129) and 50 nM [^3H]-cGMP (GE Healthcare, cat. # TRK392 S.A. 13.2 Ci/mmol), 3.75 ng/well PDE10A enzyme (Enzo Life Science, Lausen, Switzerland cat # SE-534) with or without a specific test compound. A range of concentrations of the potential inhibitor was used to generate data for calculating the concentration of inhibitor resulting in 50% of the effect (e.g. IC50, the concentration of the competitor inhibiting PDE10A activity by 50%). Non-specific activity was tested without the enzyme. The reaction was initiated by the addition of the substrate solution (cGMP and [^3H]-cGMP) and allowed to progress for 20 minutes at room temperature. […] Afterwards, radioactive counts were measured on a Perkin Elmer TopCount Scintillation plate reader.

These results are taken from US20160031878A1, “RADIOLABELED COMPOUNDS” (Hoffmann-La Roche Inc., priority 2013, published 2016).

T1 sequence (Q9Y233 1-779 isoform Q9Y233-1): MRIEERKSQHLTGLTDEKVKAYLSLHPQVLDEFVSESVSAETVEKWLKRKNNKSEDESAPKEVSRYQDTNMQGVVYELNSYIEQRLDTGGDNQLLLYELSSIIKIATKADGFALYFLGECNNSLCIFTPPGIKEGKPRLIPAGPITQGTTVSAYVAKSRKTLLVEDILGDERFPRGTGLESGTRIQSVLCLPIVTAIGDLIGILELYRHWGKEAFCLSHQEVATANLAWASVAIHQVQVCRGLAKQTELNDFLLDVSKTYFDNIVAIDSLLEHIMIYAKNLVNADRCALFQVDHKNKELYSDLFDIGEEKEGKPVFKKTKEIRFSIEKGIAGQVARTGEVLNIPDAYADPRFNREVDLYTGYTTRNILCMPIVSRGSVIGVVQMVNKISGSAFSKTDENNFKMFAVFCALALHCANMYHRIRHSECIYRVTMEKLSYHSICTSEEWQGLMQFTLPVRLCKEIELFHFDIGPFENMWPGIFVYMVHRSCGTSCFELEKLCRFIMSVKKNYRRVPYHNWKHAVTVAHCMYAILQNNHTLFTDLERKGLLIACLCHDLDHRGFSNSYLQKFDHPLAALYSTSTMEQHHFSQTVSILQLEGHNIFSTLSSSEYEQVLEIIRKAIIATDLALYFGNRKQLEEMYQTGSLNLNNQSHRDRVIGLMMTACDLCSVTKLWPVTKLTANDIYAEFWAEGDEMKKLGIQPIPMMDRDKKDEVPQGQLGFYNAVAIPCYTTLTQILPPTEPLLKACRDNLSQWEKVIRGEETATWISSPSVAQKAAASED

Regarding `COc1cccc(-c2nc3cc(NC(=O)c4c(C(=O)N5CCOCC5)cnn4C)ccn3n2)c1` [Compound 21, 2-Methyl-4-(morpholine-4-carbonyl)-2H-pyrazole-3-carboxylic acid [2-(3-methoxy-phenyl)-[1,2,4]triazolo[1,5-a]pyridin-7-yl]-amide], the concentration for half-maximal inhibition (IC50) came out at 5.1 nM.

`CN(CCF)C(=O)c1cnn(C)c1C(=O)Nc1ccn2nc(-c3ccccc3)nc2c1` [Compound 4, 2-methyl-2H-pyrazole-3,4-dicarboxylic acid 4-[(2-fluoro-ethyl)-methyl-amide]3-[(2-phenyl-[1,2,4]triazolo[1,5-a]pyridin-7-yl)-amide]]: the IC50 turned out to be 0.94 nM.
